Reference: patent US5118685A, “Aminopropanol derivatives of substituted 2-hydroxy-propiophenones, and therapeutic agents containing these compounds” (BASF Aktiengesellschaft, priority 1983, dated 1992)

Legend:
[1] = system: aconitine-induced arrythmia in the dog; experiment: Antiarrhythmic action on aconitine-induced arrythmia in the dog (oral administration); format: in vivo, dog (male or female mongrel dogs); settings: for change in vivo at 10 mg/kg: Canis lupus familiaris, po, 1 h, read-out: Prolongation of aconitin infusion period; for prolongation of time before arrhythmias appeared, relative to that obtained with propafenone and diprafenone (times greater): dog, 10 mg/kg, oral
Procedure: Male or female mongrel dogs weighing 12-15 kg were used. The substances to be tested were administered orally, 40 minutes after induction of anesthesia using Na pentobarbital (30 mg/kg i.v.). Cardiac arrhythmias were induced by infusion of aconitine (5 μg per kg per min), the infusion beginning 60 minutes after administration of the substance. In the ECG of untreated animals, arrhythmias (loss or inversion of P, ventricular tachyarrhythmias) occurred after an average infusion time of 6.4±0.29 min.
When the substances according to the invention were administered in a dose of 10 mg/kg, the time which elapsed before arrhythmias appeared was prolonged. […]; the antiarrhythmic activity is higher (Table 1).

[2] = in vivo; settings: mouse, ip, single administration i.p., female NMRI mice, approximate values
[3] = system: arrhythmias after infarct in the conscious dog; experiment: Antiarrhythmic action on arrhythmias after infarct (coronary ligature) in the conscious dog; format: in vivo, dog (male and female beagle dogs); settings: for inhibition of arrhythmias compared with propafenone and diprafenone (in words) / Increase in normal heart actions: oral
Procedure: The substances were also tested with regard to their action on arrhythmias after coronary ligature. This method permits conclusions to be drawn as to the action on arrhythmias after infarct in man. Male and female beagle dogs weighing 9-15 kg were used. The ramus descendens of the left coronary artery was ligatured by a modified method of Harris (Circulation, 1, 1318-1328, 1950). Tachycardic, usually ventricular arrhythmias of various origins resulted which were detectable on the ECG, with P loss QRS deformation and T wave elevation. The measure for determining antiarrhythmic action was the frequency (%) of normal heart actions ascertained during a 100-minute control period at 5-minute intervals. Hearbeats had to be at most 29% of the normal during this control period before a substance was administered. After administration, the ECG was run, as in the control period, for 100 minutes at 5-minute intervals, and then for a further 200 minutes at 10-minute intervals.

| SMILES | change in vivo at 10 mg/kg [1] [%] | LD50 [2] [mg/kg] | inhibition of arrhythmias compared with propafenone and diprafenone (in words) [3] | Increase in normal heart actions ([3]; dose 10.0 mg/kg) [%] | prolongation of time before arrhythmias appeared, relative to that obtained with propafenone and diprafenone (times greater) [1] | Increase in normal heart actions ([3]; dose 21.5 mg/kg) [%] | oral dosage rate giving inhibition of arrhythmias as great as propafenone (times less) ([3]; relative to propafenone) |
| --- | --- | --- | --- | --- | --- | --- | --- |
| CCC(C)(C)NCC(O)COc1ccccc1C(=O)CCc1cnn(C)c1 (centres unmarked) [Example 12] | 137 | 68.1 | – | – | – | – | – |
| CC(C)N(CC(O)COc1ccccc1C(=O)CCc1cccn1C)C(C)C (centres unmarked) [Example 5] | 85 | 68.1 | more active than propafenone and diprafenone at the same rate | 66 | – | – | – |
| CCCNCC(O)COc1ccccc1C(=O)CCc1cccn1C (centres unmarked) [Example 4] | 70 | 46.4 | – | – | twice | – | – |
| CCC(C)(C)NCC(O)COc1ccccc1C(=O)CCc1ccccc1 (centres unmarked) [diprafenone, 2-[2-hydroxy-3-(1,1-dimethylpropylamino)-propoxy]-ω-phenylpropiophenone, reference compound] | 33 | 68.1 | – | – | – | 43 | – |
| CC(C)NCC(O)COc1ccccc1C(=O)CCc1ccn(C)c1 (centres unmarked) [Example 7] | 193 | 46.4 | more active than propafenone and diprafenone at the same rate | 92 | six times | – | – |
| CC(C)NCC(O)COc1ccccc1C(=O)CCc1cccn1C (centres unmarked) [Example 3] | 85 | 68.1 | – | – | – | – | – |
| CCCNCC(O)COc1ccccc1C(=O)CCc1cnn(C)c1 (centres unmarked) [Example 9] | 154 | 31.6 | inhibited arrhythmias to just as great an extent as propafenone, and to a far greater extent than diprafenone | – | – | – | about 5 times less |
